The source of these data is US6451734B1, “Substituted 3-benzylpyrazoles and their use as herbicides” (BASF Aktiengesellschaft, priority 1996, dated 2002).

Common to all, as to format: in vivo
A short description of test [1]: determination of glucose elimination via urine in CD1-mice. Here is the method:
The animals which were used in the experiments described below received, in addition to sufficient water, a standard feed (“Rat and Mouse Breeder and Grower Diet” supplied by Special Diets Services Ltd., UK). Determination of Glucose Elimination via Urine In this experiment, 4 groups of 5 CD1-mice each (20—25 g, supplied by Harlan, UK) were transferred into metabolism cages and initially acclimatized for 24 hours. By pharyngeal tube, animals were then administered 100 mg/kg of body weight of the active compound IIIc.1, dissolved or suspended in 0.25% strength aqueous hydroxyethylcellulose (CELLOSIZE supplied by UCC). For comparison, 0.25% strength aqueous Cellosize without active compound was administered to the other 10 mice. The urine was subsequently collected for 24 hours and its total volume was measured. In each case […] of urine were examined for their glucose content.

Test [2] can be described thus: effect on the plasma glucose and insulin level in diabetes mice. To be noted: homocygotic diabetes mice, not fed for one night; by pharyngeal tube in 0.25% hydroxyethylcellulose; blood collected 2 and 4 hours after treatment. An excerpt:
The animals which were used in the experiments described below received, in addition to sufficient water, a standard feed (“Rat and Mouse Breeder and Grower Diet” supplied by Special Diets Services Ltd., UK). Effect of the active compounds according to the invention on the plasma glucose and insulin level The laboratory animals used were homocygotic diabetes mice (40—60 g, supplied by Harlan UK) which were initially not fed for one night and then separated into different groups. The active compounds were administered as a solution or suspension in 0.25% strength aqueous hydroxyethylcellulose (CELLOSIZE supplied by UCC) using a pharyngeal tube, namely at 5 ml/kg of body weight. 2 and 4 hours after the treatment, approximately 50 μl each of blood were collected from the tip of the tail in capillary tubes for the collection of blood containing lithium heparin (supplied by Sarstedt, “Microvette CB300LH”). Plasma samples (5 μl) were immediately tested for their glucose content. A further 10 μl were stored in an Eppendorf tube at (−70)° C. until the plasma glucose and insulin content were determined.

In test [3] the test system is Setaria viridis. The test can be described thus: greenhouse experiment, post-emergence treatment (herbicidal activity). As to conditions: Setaria viridis (green foxtail), 0.125 kg/ha of a.s. An excerpt: (§1) The herbicidal activity of the substituted 3-benzylpyrazoles I was demostrated by the following greenhouse experiments: The culture containers used were plastic flowerpots containing loamy soil with approximately 3.0% of humus as the substrate. The seeds of the test plants were sown separately for each species. For the post-emergence treatment, the test plants were first grown to a plant height of 3 to 15 cm, depending on the plant habit, and only then treated with the active ingredients which had been suspended or emulsified in water. The test plants for this purpose were either sown directly and grown in the same containers, or they were first grown separately as seedlings and transplanted into the test containers a few days prior to treatment. The rate of application for the post-emergence treatment was 0.125 kg/ha of a.s. (active substance). Depending on the species, the plants were kept at 10-25° C. or 20-35° C. The test period extended over 2 to 4 weeks. During this time, the plants were tended, and their response to the individual treatments was evaluated. Evaluation was carried out using a scale from 0 to 100. 100 means no emergence of the plants, or complete destruction of at least the aerial parts, and 0 means no damage, or normal course of growth. The plants used in the greenhouse experiments belonged to the following species: [table]

Test [4] deals with Abutilon theophrasti. The description is as above. As to conditions: Abutilon theophrasti (velvet leaf), 0.125 kg/ha of a.s.
Excerpt: as §1

The test system of test [5] is Solanum nigrum. The test is described as above. To be noted: Solanum nigrum (black nightshade), 0.125 kg/ha of a.s.
Excerpt: as §1

Test [6] relates to Amaranthus retroflexus. The description is as above. As to conditions: Amaranthus retroflexus (redroot pigweed), 0.125 kg/ha of a.s.
Excerpt: as §1

Setting [7] is: 10 CD1-mice, 100 mg/kg of body weight by pharyngeal tube, urine collected for 24 hours.

Consider `Cn1c(=O)cc(Cc2cccc(Cl)c2Cl)n1C(F)F` [IIIc.1, 5-(2,3-Dichlorobenzyl)-1-difluoromethyl-1,2-dihydro-2-methyl-3H-pyrazol-3-one], for which, in test [1] (setting [7]), the “glucose concentration of the urine” value was determined as 17.62 mmol/L and the “total elimination of glucose” value was 70.48 µmol. Moreover, in test [1] (CD1-mice, 100 mg/kg by pharyngeal tube, 24 hours, versus Cellosize without active compound), the “increase of the elimination of glucose (via urine)” value is recorded as 52%. The plasma insulin level result in test [2] was “substantially unchanged”.

On to `Cn1nc(Cc2cccc(Cl)c2Cl)c(Cl)c1OC(F)F` [Ia.1, 4-Chloro-3-(2,3-dichlorobenzyl)-5-difluoromethoxy-1-methyl-1H-pyrazole], for which the herbicidal activity result in test [3], in test [4], in test [5] and in test [6] was “very good” throughout. The plasma insulin level result in test [2] is “substantially unchanged”.

For `Cn1nc(Cc2cccc(Cl)c2Cl)cc1OC(F)F` [Ic.1, 3-(2,3-Dichlorobenzyl)-5-difluoromethoxy-1-methyl-1H-pyrazole], the plasma insulin level result in test [2] is on record as “substantially unchanged”.
